This assay concerns the target T1, Matrix-Metalloproteinase 9 (MMP9) (Homo sapiens, UniProt P14780).
T1 construct: 5 μl sample (active MMP9 at 2 μg/ml)
The assay is described as follows: Fluorogenic peptide cleavage assay with active MMP9 (kinetic fluorescence scan). Format: biochemical. The settings on record: active MMP9 at 2 μg/ml, 5 μl of 0.2 mM peptide per well; excitation 328 nm, emission 400 nm; kinetic scan 30 min; FIG. 3. The procedure:
2 flurogenic peptides with 1 (PCL0174 A4) or 2 (PCL0174 B1) cleavable sequences respectively were investigated with sensitivity towards Matrix-Metalloproteinase 9 (MMP9).
96-well assay plate, black polystyrene, Costar®, Corning Inc. (Cat. #3925, lot #25011023)
MMP buffer, Aq. Solution of 50 mM Tris, 100 mM sodium chloride, 10 mM Calcium Chloride, 50 μM […] zinc chloride, 0.025% Brij 35, 0.05% sodium azide at pH 8.0.
Peptides PCL0174 A4 and PCL0174 B1 at a molar concentration of 8 mM
Testing Method • Peptides at a stock of 8 mM were diluted to 0.2 mM in MMP buffer • 2 μl+78 μl MMP buffer • 5 μl sample (active MMP9 at 2 μg/ml)+190 μl MMP buffer added to well • 5 μl of 0.2 mM peptide added per well • Read on a Fluorometer using the following settings: • Excitation wavelength: 328 nm, bandwidth 5 nm • Emission wavelength: 400 nm, bandwidth 5 nm • Kinetic scan: 30 min, interval 1 min

T1 sequence (P14780 107-707 limits assumed, species assumed): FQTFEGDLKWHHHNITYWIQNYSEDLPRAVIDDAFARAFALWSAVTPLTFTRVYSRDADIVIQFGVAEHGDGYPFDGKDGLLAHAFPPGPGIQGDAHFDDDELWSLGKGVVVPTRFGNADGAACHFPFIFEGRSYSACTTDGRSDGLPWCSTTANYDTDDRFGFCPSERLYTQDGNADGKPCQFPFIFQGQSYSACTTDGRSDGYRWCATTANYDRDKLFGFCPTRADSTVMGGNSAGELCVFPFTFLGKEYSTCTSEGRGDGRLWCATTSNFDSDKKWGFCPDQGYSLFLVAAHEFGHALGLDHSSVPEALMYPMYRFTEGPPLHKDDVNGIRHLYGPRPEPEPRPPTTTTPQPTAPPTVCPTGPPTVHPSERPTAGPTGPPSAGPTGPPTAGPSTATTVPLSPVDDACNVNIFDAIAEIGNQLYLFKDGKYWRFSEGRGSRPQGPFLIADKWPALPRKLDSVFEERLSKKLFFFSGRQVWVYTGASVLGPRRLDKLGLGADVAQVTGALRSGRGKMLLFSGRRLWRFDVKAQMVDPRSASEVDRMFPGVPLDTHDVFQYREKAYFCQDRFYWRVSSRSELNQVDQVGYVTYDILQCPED

As to “Lys(Mc Coumarin)-[GPQGIFGQ]-Lys(Dnp)G [1 CS]”, the “running time at which the same result (signal) is achieved” value was determined as 30 min.
For “Lys(Mc Coumarin)-[GPQGIFGQ])-[GPQGIFGQ]-Lys(Dnp)G [2 CS]”, the “running time at which the same result (signal) is achieved” value was found to be 8 min.
